In PMC10900215 (JACS Au, 2024):
Where “and” joins values, the source holds several entries; their conditions need not be identical. Equal entries are not always repeated.

How the values were obtained:
METTL14 = experiment: Cellular degradation assay (Western blot), METTL14 in MOLM-13; format: cell-based, human; details: MOLM-13, 24 h, 2 μM compound
Experimental: (§1) MOLM-13, NOMO-1, THP-1, Kasumi-1, PC3, and DU145 cell lines were obtained from DSMZ-German Collection of Microorganisms and Cell Cultures GmbH. Cells were cultured in RPMI 1640 medium (11875093, Thermo Fisher Scientific) containing 10% FBS (16140071, Thermo Fisher Scientific) and 1% penicillin-streptomycin (15140122, Thermo Fisher Scientific) in 5% CO2 at 37 °C in a humidified incubator, with maintained cell densities at 0.5–1 × 10^6 cells/mL. All cell lines were tested negative for mycoplasma contamination (PCR-based assay by Microsynth, Switzerland).
(§2) METTL3 (and METTL14) protein degradation was monitored by Western blot. Cells were treated with the indicated concentration of PROTACs or DMSO control (0.1% (v/v)) for 24h, 37 °C with 5% CO2. Samples were then collected and lysed with RIPA buffer with added protease inhibitors (11697498001, Roche). After SDS-PAGE, proteins were transferred to a nitrocellulose membrane, blocked (with 5% milk, 0.5% BSA in TBST buffer), and incubated overnight with primary antibodies. The following antibodies were used: GAPDH (no. 2118, Cell Signaling, 1:4000), β-actin (ab8226, Abcam, 1:2000), METTL3 (ab195352, Abcam, 1:1000), and METTL14 (ab220031, Abcam, 1:1000). Membranes were scanned using an LI-COR Odyssey DLx imager after incubation with appropriate secondary antibodies (antimouse IgG IRDye 680RD (926–68072, LI-COR, 1:10000) and goat anti-Rabbit IgG IRDye 800CW (926–32211, LI-COR, 1:10000)). Densitometry was performed in Image Studio Lite software and analyzed in GraphPad Prism 9.

METTL3-14 = METTL3-14 (Homo sapiens, UniProt Q86U44); experiment: biochemical; parameters: with the full-length complex, the recombinant complex construct pFastBacDual-StrepII-GFP-TEV-METTL3-His-TEV-METTL14 was expressed; StrepII (N); GFP (N); TEV site (N); made in house; host or cells: baculovirus/Sf9 insect cells; details: inhibition of catalytic activity of METTL3-14, binary FRET assay
METTL3-14, sequence (Q86U44 whole entry): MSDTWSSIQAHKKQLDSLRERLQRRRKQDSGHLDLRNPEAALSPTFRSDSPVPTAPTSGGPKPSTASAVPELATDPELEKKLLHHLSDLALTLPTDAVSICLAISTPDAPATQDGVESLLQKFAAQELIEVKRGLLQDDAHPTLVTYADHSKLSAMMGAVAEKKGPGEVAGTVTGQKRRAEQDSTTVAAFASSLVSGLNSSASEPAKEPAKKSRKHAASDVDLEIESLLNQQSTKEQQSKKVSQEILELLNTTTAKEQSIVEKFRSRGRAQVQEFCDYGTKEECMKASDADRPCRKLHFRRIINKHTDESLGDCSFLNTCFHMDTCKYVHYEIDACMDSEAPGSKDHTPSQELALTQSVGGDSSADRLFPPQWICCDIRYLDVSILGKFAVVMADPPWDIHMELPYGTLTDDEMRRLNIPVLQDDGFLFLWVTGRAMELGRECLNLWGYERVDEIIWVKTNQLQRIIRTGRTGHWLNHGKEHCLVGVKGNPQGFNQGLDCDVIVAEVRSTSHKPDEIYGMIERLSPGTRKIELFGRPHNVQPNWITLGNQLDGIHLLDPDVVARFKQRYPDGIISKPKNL
METTL3-14, sequence (Q9HCE5 whole entry, further chain): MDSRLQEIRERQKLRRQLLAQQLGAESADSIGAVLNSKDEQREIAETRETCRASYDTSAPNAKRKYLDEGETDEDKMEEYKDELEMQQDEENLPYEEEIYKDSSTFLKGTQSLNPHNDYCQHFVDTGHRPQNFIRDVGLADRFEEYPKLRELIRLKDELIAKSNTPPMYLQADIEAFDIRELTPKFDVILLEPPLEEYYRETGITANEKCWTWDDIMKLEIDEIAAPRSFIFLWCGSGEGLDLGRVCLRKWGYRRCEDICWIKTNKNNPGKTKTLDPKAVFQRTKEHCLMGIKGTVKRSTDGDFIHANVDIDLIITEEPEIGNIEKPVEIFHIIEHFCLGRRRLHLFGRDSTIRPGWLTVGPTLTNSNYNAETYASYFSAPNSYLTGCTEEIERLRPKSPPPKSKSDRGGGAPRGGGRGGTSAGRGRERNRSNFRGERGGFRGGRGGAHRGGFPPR
Excerpt: For determining the half maximal inhibitory concentration (IC50) with the full-length complex, the recombinant complex construct pFastBacDual-StrepII-GFP-TEV-METTL3-His-TEV-METTL14 was expressed using the baculovirus/Sf9 insect cell expression system and purified as described previously.[21]
The inhibitory potencies of the PROTACs for METTL3 were quantified by a homogeneous time-resolved fluorescence (HTRF)-based enzyme assay as previously described.[40]

[1] = biological target: T1, ternary complex CRBN/PROTAC/METTL3–14 (Homo sapiens, UniProt Q86U44+Q96SW2); experiment: FRET-based ternary complex formation assay (TCFA); format: binding; details: for TCFA amplitude (mean ± SEM): Hook curve amplitude, fraction of the maximum of compound 16; for ECmax (nM) ± SD: PROTAC concentration at the maximum of the signal in the TCFA; for ECmax: TCFA, peak of the Hook curve
T1 construct: methyltransferase domains (MTD) of METTL3 (residues 354–580); His6 (N, cleaved yes); made in house; host or cells: METTL3-MTD/METTL14-MTD: baculovirus/Sf9; CRBN-TBD: E. coli Rosetta (DE3), co-expressed with BirA
T1 sequence (Q86U44 354-580): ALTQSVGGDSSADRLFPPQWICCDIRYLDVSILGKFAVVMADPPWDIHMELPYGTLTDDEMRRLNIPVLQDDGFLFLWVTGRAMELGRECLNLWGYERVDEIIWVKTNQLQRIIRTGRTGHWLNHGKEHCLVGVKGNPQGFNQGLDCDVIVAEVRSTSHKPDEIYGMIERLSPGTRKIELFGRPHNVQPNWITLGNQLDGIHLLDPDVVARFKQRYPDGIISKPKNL
T1 sequence (Q9HCE5 107-395 partner limits assumed): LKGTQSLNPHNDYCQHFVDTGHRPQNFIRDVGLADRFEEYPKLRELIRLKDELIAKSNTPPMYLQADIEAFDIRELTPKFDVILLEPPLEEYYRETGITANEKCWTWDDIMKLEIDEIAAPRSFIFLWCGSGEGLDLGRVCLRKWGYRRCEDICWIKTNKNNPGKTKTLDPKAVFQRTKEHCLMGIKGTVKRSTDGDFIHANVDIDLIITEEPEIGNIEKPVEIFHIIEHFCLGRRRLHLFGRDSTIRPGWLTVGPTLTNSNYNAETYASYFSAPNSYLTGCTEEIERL
T1 sequence (Q96SW2 318-442): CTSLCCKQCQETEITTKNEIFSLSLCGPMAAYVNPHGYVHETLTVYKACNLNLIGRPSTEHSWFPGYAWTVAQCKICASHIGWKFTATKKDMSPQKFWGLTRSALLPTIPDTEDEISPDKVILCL
Experimental: For protein expression, suspension cultures of Sf9 cells in […] medium (Thermo Fisher) were infected at a density of 2 × 10^6 mL^–1. […] The complex was further purified by size exclusion chromatography using a Superdex 200 Increase 10/300 GL column (Cytiva) in 20 mM Tris-Cl, pH 8.0, and 200 mM KCl. The complex was aliquoted and flash-frozen in liquid nitrogen and stored at −80 °C until further use.
Ternary complex formation between the PROTACs, METTL3, and CRBN was quantified by a homogeneous time-resolved fluorescence (HTRF)-based enzyme assay. […] Curves of titrations with the PROTACs were plotted in GraphPad Prism 9.5.1 and fitted with a Gaussian function, if appropriate. […] CRBN^TBD-Avi(biotin) was used at a final concentration of 10 nM. […] Anti-GST Eu^3+-labeled antibody (Cisbio, 61GSTKLB) was used at a final concentration of 0.8 nM. The final reaction volume was 20 μL in 50 mM HEPES (pH 7.5), 150 mM NaCl, 0.1% BSA, 100 mM KF. […] The ratio of the emissions [drawing 1] was considered for further analysis. […] The concentrations resulting in the maximum signal (ECmax) and the amplitudes of the Hook curves were determined from the parameters of the Gaussian fit (if appropriate) or as the coordinates of the data-point with the highest TR-FRET signal.
For the ternary complex formation assay (TCFA), one of the protein partners must have a GST-tag and the other a biotin-tag.

METTL3 = biological target: T2, METTL3 (Homo sapiens, UniProt Q86U44); experiment: Cellular degradation assay (Western blot), METTL3 in MOLM-13; format: cell-based; details: MOLM-13, 24 h, 2 μM compound
T2 construct: METTL3–14 degradation up to 70% of the endogenous level; endogenous in cells; host or cells: MOLM-13, PC3, DU145
T2 sequence (Q86U44 2-580 limits assumed): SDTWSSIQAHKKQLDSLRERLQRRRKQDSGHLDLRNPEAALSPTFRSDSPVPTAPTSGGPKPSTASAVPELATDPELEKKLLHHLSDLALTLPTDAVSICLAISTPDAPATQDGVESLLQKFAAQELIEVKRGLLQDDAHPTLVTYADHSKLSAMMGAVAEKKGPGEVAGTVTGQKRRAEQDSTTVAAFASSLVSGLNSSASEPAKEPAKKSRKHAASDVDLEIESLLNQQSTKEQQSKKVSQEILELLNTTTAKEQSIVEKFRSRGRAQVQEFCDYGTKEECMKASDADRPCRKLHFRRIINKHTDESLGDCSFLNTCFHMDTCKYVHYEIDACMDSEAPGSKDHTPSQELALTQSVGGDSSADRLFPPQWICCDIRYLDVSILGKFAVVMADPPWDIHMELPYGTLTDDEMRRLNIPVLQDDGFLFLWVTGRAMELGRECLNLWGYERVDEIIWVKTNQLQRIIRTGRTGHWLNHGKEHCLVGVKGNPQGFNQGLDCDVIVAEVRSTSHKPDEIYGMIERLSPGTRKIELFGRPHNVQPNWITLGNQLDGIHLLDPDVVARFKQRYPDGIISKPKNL
T2 sequence (Q9HCE5 whole entry partner): as the sequence (Q9HCE5 whole entry, further chain) above
Experimental: as §1, §2

[2] = Cell viability assay (CellTiter-Glo) on MOLM-13; format: cell-based; details: human, MOLM-13 cells, average of two biological replicates; for viability at 72 h, […]: 2.5 µM
Experimental: as §1
Cell viability was determined using a CellTiter-Glo luminescent cell viability assay (Promega) based on the detection of ATP according to the manufacturer’s instructions. 100 μL of the reagent was added to each well and incubated for 10 min at room temperature. […] Background luminescence value was obtained from wells containing the CellTiter-Glo reagent and medium without cells. The resulting data was analyzed in GraphPad Prism 9.

SMILES | MOLM-13 West. blot at 24h 2 μM comp conc. Degradation (%) of METTL14 (METTL14) | IC50 (METTL3-14) [nM] | TCFA amplitude (mean ± SEM) [1] | ECmax (nM) ± SD [1] | ECmax [1] [µM] | MOLM-13 West. blot at 24h 2 μM comp conc. Degradation (%) of METTL3 (METTL3) | viability at 72 h, 0.6 µM [2] [%] | viability at 72 h, 1.25 µM [2] [%] | viability at 72 h, […] [2] [%] | viability at 72 h, 5 µM [2] [%] | viability at 72 h, 10 µM [2] [%]
CC1(C)CCN(Cc2ccc(N3CC(=O)NC4(CCN(c5cc(NCCCNC(=O)CCOCCOCCNc6cccc7c6C(=O)N(C6CCC(=O)NC6=O)C7=O)ncn5)CC4)C3)cc2)CC1 (stereo not shown) [Compound 1] | / ^a (Degradation <10% or stabilization) | 2470 ± 790 | 0.03 | 6800 (n = 1) nM | 6.8 | / ^a (Degradation <10% or stabilization) | – | – | – | – | –
CC1(C)CCN(Cc2ccc(N3CC(=O)NC4(CCN(c5cc(NCCCNC(=O)CCOCCOCCOCCNc6cccc7c6C(=O)N(C6CCC(=O)NC6=O)C7=O)ncn5)CC4)C3)cc2)CC1 (stereo not shown) [Compound 2] | / (Degradation <10% or stabilization) | 1060 ± 220 | 0.3 ± 0.1 | 2800 ± 280 nM | 2.8 | / (Degradation <10% or stabilization) | – | – | – | – | –
CC1(C)CCN(Cc2ccc(N3CC(=O)NC4(CCN(c5cc(NCCCNC(=O)CCOCCOCCOCCOCCNc6cccc7c6C(=O)N(C6CCC(=O)NC6=O)C7=O)ncn5)CC4)C3)cc2)CC1 (stereo not shown) [Compound 3] | / (Degradation <10% or stabilization) | 590 ± 130 | 0.3 ± 0.2 | 1900 (n = 1) nM | 1.9 | / (Degradation <10% or stabilization) | – | – | – | – | –
CC1(C)CCN(Cc2ccc(N3CC(=O)NC4(CCN(c5cc(NCCCNC(=O)CCOCCOCCOCCOCCOCCNc6cccc7c6C(=O)N(C6CCC(=O)NC6=O)C7=O)ncn5)CC4)C3)cc2)CC1 (stereo not shown) [Compound 4] | / (Degradation <10% or stabilization) | 640 ± 120 | 0.4 | 2000 (n = 1) nM | 2.0 | / (Degradation <10% or stabilization) | – | – | – | – | –
CC1(C)CCN(Cc2ccc(N3CC(=O)NC4(CCN(c5cc(NCCCNC(=O)CCCCCCCCNc6cccc7c6CN(C6CCC(=O)NC6=O)C7=O)ncn5)CC4)C3)cc2)CC1 (stereo not shown) [Compound 5] | / (Degradation <10% or stabilization) | 260 ± 30 | 0.7 ± 0.1 | 660 ± 20 nM | – | / (Degradation <10% or stabilization) | – | – | – | – | –
CC1(C)CCN(Cc2cc(F)c(N3CC(=O)NC4(CCN(c5cc(NCC6CCN(C(=O)CNc7cccc8c7C(=O)N(C7CCC(=O)NC7=O)C8=O)CC6)ncn5)CC4)C3)cc2F)CC1 (stereo not shown) [Compound 21] | 23 ± 9% | – | 1.3 ± 0.1 | 60 ± 30 nM | 0.06 | 21% and 21 ± 9% | 104 | 105 | 110 | 110 | 102
CC1(C)CCN(Cc2cc(F)c(N3CC(=O)NC4(CCN(c5cc(NCc6ccc(N7CCN(c8cccc9c8C(=O)N(C8CCC(=O)NC8=O)C9=O)CC7)cc6)ncn5)CC4)C3)cc2F)CC1 (stereo not shown) [Compound 34] | < 10% | – | 0.2 ± 0.1 | 120 ± 30 nM | – | – | 95.8 | 97.3 | 96.3 | 99.2 | 101
CC1(C)CCN(Cc2cc(F)c(N3CC(=O)NC4(CCN(c5cc(NCC6CCN(C(=O)CN7CCN(c8cccc9c8C(=O)N(C8CCC(=O)NC8=O)C9=O)CC7)CC6)ncn5)CC4)C3)cc2F)CC1 (stereo not shown) [Compound 35] | 25 ± 3% | – | 0.7 ± 0.2 | 20 ± 0 nM | – | 21% and 21 ± 11% | – | – | – | – | 105
